Laboratory results from patent US12655125B2 (SIRONAX LTD., priority 2020, dated 2026).

These compounds were tested on HT-29 cells (assay: HT29 Cells 0FBS Assay In Vitro (TNF-α/SMAC mimetic/zVAD-FMK induced necroptosis, CellTiter-Glo cell viability)). Conditions: Homo sapiens; HT-29 cells, FBS free medium, TNF-α (10 ng/ml), SMAC mimetic (6 uM), zVAD-FMK (10 μM), 20 hours; geometric mean EC50; read-out: Cell activity (EC50) of Compounds 117-281.
Assay type: cell-based
How it was run: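 HT-29 cells (5,000/well, seeded overnight) in serum-free McCoy's 5A were stimulated with TNF-α 10 ng/ml, SMAC mimetic 6 μM and zVAD-FMK 10 μM to induce necroptosis. Compound added as 10-point 3-fold series for 20 h at 37° C. CellTiter-Glo luminescence gives viability; EC50 is geometric mean of duplicate dose-responses.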
With `Cc1nn(-c2cc(OC3CN(C(=O)N4N=CC[C@H]4c4cc(F)cc(F)c4)C3)c(F)cn2)c(C)c1C(=O)NC1COC1` [compound 217, (S)-1-(4-((1-(5-(3,5-difluorophenyl)-4,5-dihydro-1H-pyrazole-1-carbonyl)azetidin-3-yl)oxy)-5-fluoropyridin-2-yl)-3,5-dimethyl-N-(oxetan-3-yl)-1H-pyrazole-4-carboxamide] the EC50 was 0.1 to 100 nM.
With `Cc1c(-c2cc(OC3CN(C(=O)N4N=CC[C@H]4c4cc(F)cc(F)c4)C3)c(F)cn2)nn(C)c1N` [compound 218, (S)-(3-((2-(5-amino-1,4-dimethyl-1H-pyrazol-3-yl)-5-fluoropyridin-4-yl)oxy)azetidin-1-yl)(5-(3,5-difluorophenyl)-4,5-dihydro-1H-pyrazol-1-yl)methanone] the EC50 was 0.1 to 100 nM.
Work on `Cc1cn(C)nc1-c1cc(OC2CN(C(=O)N3N=CC[C@H]3c3cc(F)cc(F)c3)C2)c(F)cn1` [compound 219, (S)-(5-(3,5-difluorophenyl)-4,5-dihydro-1H-pyrazol-1-yl)(3-((2-(1,4-dimethyl-1H-pyrazol-3-yl)-5-fluoropyridin-4-yl)oxy)azetidin-1-yl)methanone] yielded an EC50 of 0.1 to 100 nM.
In the case of `Cc1nn(-c2cc(OC3CN(C(=O)N4N=CC[C@H]4c4cc(F)cc(F)c4)C3)c(F)cn2)c(C)c1S(N)(=O)=O` [compound 220, (S)-1-(4-((1-(5-(3,5-difluorophenyl)-4,5-dihydro-1H-pyrazole-1-carbonyl)azetidin-3-yl)oxy)-5-fluoropyridin-2-yl)-3,5-dimethyl-1H-pyrazole-4-sulfonamide], the EC50 is reported as 0.1 to 100 nM.
`Cc1cc(C)n(-c2cc(OC3CN(C(=O)N4N=CC[C@H]4c4cc(F)cc(F)c4)C3)c(F)cn2)n1` [compound 221, (S)-(5-(3,5-difluorophenyl)-4,5-dihydro-1H-pyrazol-1-yl)(3-((2-(3,5-dimethyl-1H-pyrazol-1-yl)-5-fluoropyridin-4-yl)oxy)azetidin-1-yl)methanone] was tested, and the EC50 was 0.1 to 100 nM.
In the case of `Cc1nn(-c2cc(OC3CN(C(=O)N4N=CC[C@H]4c4cc(F)cc(F)c4)C3)c(F)cn2)c(C)c1CC(=O)N1CCC1` [compound 222, (S)-1-(azetidin-1-yl)-2-(1-(4-((1-(5-(3,5-difluorophenyl)-4,5-dihydro-1H-pyrazole-1-carbonyl)azetidin-3-yl)oxy)-5-fluoropyridin-2-yl)-3,5-dimethyl-1H-pyrazol-4-yl)ethan-1-one], the EC50 is reported as 0.1 to 100 nM.
With `Cc1nn(-c2cc(OC3CN(C(=O)N4N=CC[C@H]4c4cc(F)cc(F)c4)C3)c(F)cn2)c(C)c1CC(=O)NCCO` [compound 223, (S)-2-(1-(4-((1-(5-(3,5-difluorophenyl)-4,5-dihydro-1H-pyrazole-1-carbonyl)azetidin-3-yl)oxy)-5-fluoropyridin-2-yl)-3,5-dimethyl-1H-pyrazol-4-yl)-N-(2-hydroxyethyl)acetamide] the EC50 was 0.1 to 100 nM.
`Cc1nn(-c2cc(OC3CN(C(=O)N4N=CC[C@H]4c4cc(F)cc(F)c4)C3)c(F)cn2)c(C)c1CC(=O)N1CCOCC1` [compound 224, (S)-2-(1-(4-((1-(5-(3,5-difluorophenyl)-4,5-dihydro-1H-pyrazole-1-carbonyl)azetidin-3-yl)oxy)-5-fluoropyridin-2-yl)-3,5-dimethyl-1H-pyrazol-4-yl)-1-morpholinoethan-1-one] was tested, and the EC50 was 0.1 to 100 nM.
`Cc1nn(-c2cc(OC3CN(C(=O)N4N=CC[C@H]4c4cc(F)cc(F)c4)C3)c(F)cn2)c(C)c1CC(N)=O` [compound 225, (S)-2-(1-(4-((1-(5-(3,5-difluorophenyl)-4,5-dihydro-1H-pyrazole-1-carbonyl)azetidin-3-yl)oxy)-5-fluoropyridin-2-yl)-3,5-dimethyl-1H-pyrazol-4-yl)acetamide] was tested, and the EC50 was 0.1 to 100 nM.
For `CNC(=O)Cc1c(C)nn(-c2cc(OC3CN(C(=O)N4N=CC[C@H]4c4cc(F)cc(F)c4)C3)c(F)cn2)c1C` [compound 226, (S)-2-(1-(4-((1-(5-(3,5-difluorophenyl)-4,5-dihydro-1H-pyrazole-1-carbonyl)azetidin-3-yl)oxy)-5-fluoropyridin-2-yl)-3,5-dimethyl-1H-pyrazol-4-yl)-N-methylacetamide], the EC50 was 0.1 to 100 nM.
Compound `Cc1nn(-c2cc(OC3CN(C(=O)N4N=CC[C@H]4c4cc(F)cc(F)c4)C3)c(F)cn2)c(C)c1SCc1ccccc1` [compound 227, (S)-(3-((2-(4-(benzylthio)-3,5-dimethyl-1H-pyrazol-1-yl)-5-fluoropyridin-4-yl)oxy)azetidin-1-yl)(5-(3,5-difluorophenyl)-4,5-dihydro-1H-pyrazol-1-yl)methanone] has an EC50 of 0.1 to 100 nM.
Work on `Cc1onc(N)c1-c1cc(OC2CN(C(=O)N3N=CC[C@H]3c3cc(F)cc(F)c3)C2)c(F)cn1` [compound 228, (S)-(3-((2-(3-amino-5-methylisoxazol-4-yl)-5-fluoropyridin-4-yl)oxy)azetidin-1-yl)(5-(3,5-difluorophenyl)-4,5-dihydro-1H-pyrazol-1-yl)methanone] yielded an EC50 of 0.1 to 100 nM.
`Cc1c(-c2cc(OC3CN(C(=O)N4N=CC[C@H]4c4cc(F)cc(F)c4)C3)c(F)cn2)nn(C)c1C(N)=O` [compound 229, (S)-3-(4-((1-(5-(3,5-difluorophenyl)-4,5-dihydro-1H-pyrazole-1-carbonyl)azetidin-3-yl)oxy)-5-fluoropyridin-2-yl)-1,4-dimethyl-1H-pyrazole-5-carboxamide] showed an EC50 of 0.1 to 100 nM.
`CNS(=O)(=O)c1c(C)nn(-c2cc(OC3CN(C(=O)N4N=CC[C@H]4c4cc(F)cc(F)c4)C3)c(F)cn2)c1C` [compound 230, (S)-1-(4-((1-(5-(3,5-difluorophenyl)-4,5-dihydro-1H-pyrazole-1-carbonyl)azetidin-3-yl)oxy)-5-fluoropyridin-2-yl)-N,3,5-trimethyl-1H-pyrazole-4-sulfonamide] showed an EC50 of 0.1 to 100 nM.
For `CCNC(=O)c1c(C)nn(-c2cc(OC3CN(C(=O)N4N=CC[C@H]4c4cc(F)cc(F)c4)C3)c(F)cn2)c1C` [compound 231, (S)-1-(4-((1-(5-(3,5-difluorophenyl)-4,5-dihydro-1H-pyrazole-1-carbonyl)azetidin-3-yl)oxy)-5-fluoropyridin-2-yl)-N-ethyl-3,5-dimethyl-1H-pyrazole-4-carboxamide], the EC50 was 0.1 to 100 nM.
`Cc1nn(-c2cc(OC3CN(C(=O)N4N=CC[C@H]4c4cc(F)cc(F)c4)C3)c(F)cn2)c(C)c1C(=O)NC1CC1` [compound 232, (S)—N-cyclopropyl-1-(4-((1-(5-(3,5-difluorophenyl)-4,5-dihydro-1H-pyrazole-1-carbonyl)azetidin-3-yl)oxy)-5-fluoropyridin-2-yl)-3,5-dimethyl-1H-pyrazole-4-carboxamide] gave an EC50 of 0.1 to 100 nM.
`Cc1nn(-c2cc(OC3CN(C(=O)N4N=CC[C@H]4c4cc(F)cc(F)c4)C3)c(F)cn2)c(C)c1C(=O)O` [compound 233, (S)-1-(4-((1-(5-(3,5-difluorophenyl)-4,5-dihydro-1H-pyrazole-1-carbonyl)azetidin-3-yl)oxy)-5-fluoropyridin-2-yl)-3,5-dimethyl-1H-pyrazole-4-carboxylic acid] gave an EC50 of 0.1 to 100 nM.
`Cc1nn(-c2cc(OC3CN(C(=O)N4N=CCC4c4cc(F)cc(F)c4)C3)c(F)cn2)c(C)c1C(N)=O` (stereo not shown) [compound 234, 1-(4-((1-(5-(3,5-difluorophenyl)-4,5-dihydro-1H-pyrazole-1-carbonyl)azetidin-3-yl)oxy)-5-fluoropyridin-2-yl)-3,5-dimethyl-1H-pyrazole-4-carboxamide] showed an EC50 of 0.1 to 100 nM.
For `Cc1nn(-c2cc(OC3CN(C(=O)N4N=CC[C@H]4c4cc(F)cc(F)c4)C3)c(F)cn2)c(C)c1S(=O)(=O)NC1CCC1` [compound 235, (S)—N-cyclobutyl-1-(4-((1-(5-(3,5-difluorophenyl)-4,5-dihydro-1H-pyrazole-1-carbonyl)azetidin-3-yl)oxy)-5-fluoropyridin-2-yl)-3,5-dimethyl-1H-pyrazole-4-sulfonamide], the EC50 was 0.1 to 100 nM.
With `Cc1nn(-c2cc(OC3CN(C(=O)N4N=CC[C@H]4c4cc(F)cc(F)c4)C3)c(F)cn2)c(C)c1S(=O)(=O)Cc1ccccc1` [compound 236, (S)-(3-((2-(4-(benzylsulfonyl)-3,5-dimethyl-1H-pyrazol-1-yl)-5-fluoropyridin-4-yl)oxy)azetidin-1-yl)(5-(3,5-difluorophenyl)-4,5-dihydro-1H-pyrazol-1-yl)methanone] the EC50 was 0.1 to 100 nM.
In the case of `Cc1c(-c2cc(OC3CN(C(=O)N4N=CC[C@H]4c4cc(F)cc(F)c4)C3)c(F)cn2)nn(C)c1C#N` [compound 237, (S)-3-(4-((1-(5-(3,5-difluorophenyl)-4,5-dihydro-1H-pyrazole-1-carbonyl)azetidin-3-yl)oxy)-5-fluoropyridin-2-yl)-1,4-dimethyl-1H-pyrazole-5-carbonitrile], the EC50 is reported as 0.1 to 100 nM.
For `Cc1cn(C)c(=O)n1-c1cc(OC2CN(C(=O)N3N=CC[C@H]3c3cc(F)cc(F)c3)C2)c(F)cn1` [compound 238, (S)-3-(4-((1-(5-(3,5-difluorophenyl)-4,5-dihydro-1H-pyrazole-1-carbonyl)azetidin-3-yl)oxy)-5-fluoropyridin-2-yl)-1,4-dimethyl-1,3-dihydro-2H-imidazol-2-one], the EC50 was 100 to 1000 nM.
For `Cc1nn(-c2cc(OC3CN(C(=O)N4N=CC[C@H]4c4cc(F)cc(F)c4)C3)c(F)cn2)c(C)c1CC(=O)N(C)C` [compound 239, (S)-2-(1-(4-((1-(5-(3,5-difluorophenyl)-4,5-dihydro-1H-pyrazole-1-carbonyl)azetidin-3-yl)oxy)-5-fluoropyridin-2-yl)-3,5-dimethyl-1H-pyrazol-4-yl)-N,N-dimethylacetamide], the EC50 was 0.1 to 100 nM.
Compound `Cc1nn(-c2cc(OC3CN(C(=O)N4N=CC[C@H]4c4cc(F)cc(F)c4)C3)c(F)cn2)c(C)c1S(=O)(=O)NC1COC1` [compound 240] has an EC50 of 0.1 to 100 nM.
Compound `Cc1nn(-c2cc(OC3CN(C(=O)N4N=CC[C@H]4c4cc(F)cc(F)c4)C3)c(F)cn2)c(C)c1S(=O)(=O)NC1CCOCC1` [compound 241, (S)-1-(4-((1-(5-(3,5-difluorophenyl)-4,5-dihydro-1H-pyrazole-1-carbonyl)azetidin-3-yl)oxy)-5-fluoropyridin-2-yl)-3,5-dimethyl-N-(tetrahydro-2H-pyran-4-yl)-1H-pyrazole-4-sulfonamide] has an EC50 of 0.1 to 100 nM.
